Data reported in patent US20030065035A1, “Novel stilbene derivative crystal and method for producing the same” (AJINOMOTO CO. INC, priority 2000, published 2003).

Key:
[1] = Water adsorption isotherm (water adsorption level, BELSORP-18 analyzer); format: physicochemical; conditions: constant temperature of 25° C.; crystal dried overnight in vacuum at 60° C.; results in FIGS. 3 and 4; hydrochloride
Experimental: Preparation of Water Adsorption Isotherm (Water Adsorption Constant Temperature Line):
After the Type IV crystal recovered above was dried overnight in vacuum at 60° C., the water adsorption level of the crystal was measured at a constant temperature of 25° C. by a fully automatic water adsorption analyzer (BELSORP-18: Nippon Bell K.K.) (see Mitsuiki et al., J. Agric. Food Chem., vol.46, No. 9, pages 3528-3534 (1998)).
The water adsorption level of the Type I crystal was also measured in the same manner as above.

[2] = X ray powder diffraction pattern of the crystal under humidity (crystal structure stability); format: physicochemical; conditions: relative humidity of 80% or less

Compound	water (water vapor) adsorption level versus relative humidity [1]	change of X ray powder diffraction pattern / crystal structure [2]
COc1ccc(/C=C\c2cc(OC)c(OC)c(OC)c2)cc1NC(=O)[C@@H](N)CO.Cl [Type I crystal, (Z)-N-[2-methoxy-5-[2-(3,4,5-trimethoxyphenyl)vinyl]phenyl]-L-serinamide hydrochloride, reference compound]	adsorbed water in a degree roughly proportional to relative humidity	–
COc1ccc(/C=C\c2cc(OC)c(OC)c(OC)c2)cc1NC(=O)[C@@H](N)CO.Cl [Type IV crystal, (Z)-N-[2-methoxy-5-[2-(3,4,5-trimethoxyphenyl)vinyl]phenyl]-L-serinamide hydrochloride]	adsorbed much less water up to around a relative humidity of 80%	did not change
